Results on four molecules are retold here after article PMC3258254, “Intestinal Absorption and First-Pass Metabolism of Polyphenol Compounds in Rat and Their Transport Dynamics in Caco-2 Cells” (PLoS ONE, 2012).

Data set [1] has as its system Caco-2 cells. Kind of data set: Transport (permeability, Papp) across Caco-2 cell monolayers. The note with it: 50 µM, parent compound. The class given is in vitro ADME, human. How it is done:
(§1) Caco-2 cells, derived from human colorectal adenocarcinoma cells, were obtained from the American Type Culture Collection (Manassas, VA, USA) and maintained in plastic culture flasks (Corning Costar, Cambridge, MA, USA). The cells were cultured in Dulbecco's modified Eagle's minimal essential medium supplemented with 1% non-essential amino acids, 1% L-glutamine, 20% foetal bovine serum, 100 U•mL^–1 penicillin, and 0.1 mg•mL^–1 streptomycin, and were grown in a humidified atmosphere of 5% CO2 in air at 37°C (Figure S1). Cells were subcultured to 80% confluency.
(§2) For transport experiments, Caco-2 cells were seeded at a cell density of 1×10^5 cells•cm^−2 on Millicell Cell Culture Inserts (Millipore, Billerica, MA, USA). Cells were used 19 to 21 days after seeding, by which time the transepithelial electrical resistance value was >300 Ω•cm^–2. The culture medium was replaced with fresh medium 24 h before the transport experiments. Polyphenol compounds (50 µM) were added from the apical or basolateral side to evaluate the transport characteristics of the cells. To investigate the role of different transporters, Caco-2 cells were preincubated with verapamil (an inhibitor of P-glycoprotein), cyclosporine A (a dual inhibitor of P-glycoprotein and multi-drug resistance protein 2, MRP2), or phloridzin, (a selective inhibitor of sodium/glucose cotransporter 1, SGLT1) to investigate the absorptive and transport changes of the polyphenol compounds [19]–[20]. The samples were collected and stored at −70°C until needed for analysis.
In general terms: Caco-2 monolayers are a common model of the intestinal barrier.

Test in data set [2]: as above
It counts as in vitro ADME, human. The conditions noted are these: human, mean ± SD; for Papp A→B at 50 µM: Caco-2, apical to basolateral, n = 6, read-out: Papp AP to BL; for Papp B→A at 50 µM: Caco-2, basolateral to apical, n = 6, read-out: Papp BL to AP. How it is done: as §1, §2

The test system of another data set is rat small intestine. Kind of data set: In situ intestinal perfusion model (isolated rat small intestine, luminal and vascular perfusion). The class given is in vivo. How it is done: The rats were anaesthetized with an intra-abdominal injection of a mixture containing 40 mg•kg^–1 sodium phenobarbital. The animals were then heparinized (90 U•kg^–1) via the vena caudalis. […] Briefly, a segment of intestine between 7 and 11 cm long was identified and separated and silicone tubing was placed inside both ends of the segment. The tube at the proximal side was connected to a peristaltic pump for luminal perfusion.

A short description of data set [3]: Pharmacokinetics in rat plasma after oral administration of polyphenols. The conditions noted are these: for AUC / Cmax: 50 µmol•kg^–1; for K / T1/2Ke / Tpeak: rat plasma, oral 50 µmol•kg^–1, mean ± SD, n = 6. The source says: Male Sprague-Dawley rats (70–110 days old) weighing between 270 g and 320 g were obtained from the experimental animal centre of the Fourth Military Medical University, Xi'an, China. The rats were subjected to fasting overnight, with free access to water before the day of experiment.
The polyphenol compounds solution, prepared in 0.5% sodium carboxyl methyl cellulose (CMC-Na), were orally administrated to the rats using a dose of 50 µmol•kg^–1. Blood samples were collected from the vena abdominalis under light ether anaesthesia at different times (0.08, 0.17, 0.5, 1, 2, 4, 8, 12, 16, 24 and 36 h). The samples were immediately centrifuged for 10 min at 7185 g to obtain plasma, which was then frozen at −70°C until required for analysis.
Metabolite samples were analyzed after treatment with β-glucuronidase or sulphatase [21]–[22]. The samples (0.2 mL) were extracted with 1 mL ethyl acetate by vigorous vortex mixing for 1 min, then centrifuged at 3000× g at room temperature for 10 min. The supernatants were evaporated to dryness under N2, reconstituted in 100 µL of methanol, and analyzed for the presence of polyphenols and their derivatives using liquid chromatography coupled with tandem mass spectrometry (LC/MS/MS) using a Quattro Premier system operating under MassLynx MS Software, v4.1 (Waters Corporation, Milford, MA, USA). […] Quantitation was performed by multiple reaction monitoring of the deprotonated precursor ion and the related product ion for these polyphenols using the internal standard method with peak area ratio [23]–[24]. Collision-induced dissociation was achieved using argon as the collision gas. Standard solutions of the polyphenol compounds (1 µg•mL^–1) were applied to optimize the detection conditions in the presence of mobile phase. […] The column temperature and flow rate were 25°C and 0.2 mL⋅min^–1, respectively.

Data set [4] relates to Caco-2 cells. Kind of data set: Cellular uptake / intracellular accumulation in Caco-2 cells, with or without transporter inhibitors. The note with it: for Intracellular accumulation / uptake in the presence of phloridzin: 50 µM phloridzin (SGLT1 inhibitor); for Time of maximum intracellular accumulation (given as Cmax): 50 µM, parent compound in Caco-2 cells; for Intracellular accumulation after pre-treatment with cyclosporine A: 100 µM cyclosporine A (P-glycoprotein and MRP2 inhibitor); for Intracellular accumulation after pre-treatment with verapamil: 100 µM verapamil (P-glycoprotein inhibitor). The class given is in vitro ADME, human. How it is done:
Caco-2 cells, derived from human colorectal adenocarcinoma cells, were obtained from the American Type Culture Collection (Manassas, VA, USA) and maintained in plastic culture flasks (Corning Costar, Cambridge, MA, USA). […] Cells were subcultured to 80% confluency. For all cellular uptake studies of polyphenols, Caco-2 cells were seeded at a cell density of 6×10^5 cells•cm^–2 on six-well plastic plates. Cells were used 14 to 21 days after seeding. The culture medium was replaced with fresh medium 24 h before the uptake experiments. Polyphenol compounds (50 µM) were added to evaluate the uptake characteristics of Caco-2 cells. To determine the intracellular concentration of polyphenols, the cell lysate was obtained by subjecting the drug-containing cells to three freeze-thaw cycles in liquid nitrogen. Protein concentrations were measured using the Bradford method with bovine serum albumin as a standard. For transport experiments, Caco-2 cells were seeded at a cell density of 1×10^5 cells•cm^−2 on Millicell Cell Culture Inserts (Millipore, Billerica, MA, USA). […] The culture medium was replaced with fresh medium 24 h before the transport experiments. Polyphenol compounds (50 µM) were added from the apical or basolateral side to evaluate the transport characteristics of the cells. […] The samples were collected and stored at −70°C until needed for analysis.

Where [5] appears, read: male, Sprague-Dawley, rat, plasma, po.
[6] abbreviates: male, Sprague-Dawley, rat, in vivo, po.
Where [7] appears, read: 1500 nmol applied, perfusion 60 min.
[8] abbreviates: 1500 nmol applied, perfusion 60 min, mean ± SD, n = 3.

Turning to `O=c1cc(-c2ccc(O)cc2)oc2cc(O)cc(O)c12` [Apigenin], the “Permeability value BL to AP compared with AP to BL” value in the data set on Caco-2 cells [1] is listed as “no changes”. For the same molecule, in data set [2], the Papp A→B at 50 µM worked out at 13.8 ± 1.21 ×10⁻⁶ cm/s and the Papp B→A at 50 µM is 12.9 ± 2.54 ×10⁻⁶ cm/s. In addition, the “Total percentage of parent compound and metabolites, luminal side compared with vascular side” value (“Total percentage” below) in the data set on rat small intestine (rat, in vivo) is given as “two- to three-fold greater”. The “Luminal effluent, % of delivered dose” value in the data set on rat small intestine (rat, in vivo, 60 min) is listed as 53.87 ^2%. In data set [3] (setting [5]), this molecule had an exposure (AUC) of 659 ± 25 ng·h/mL and a Cmax of 42 ± 2 ng/mL. For the same molecule, in data set [3], the K is recorded as 0.16±0.02 ^1 h^−1, the T1/2Ke is 2.11 ± 0.03 h and the Tpeak stood at 0.50 ± 0.01 h. In the data set with Caco-2 cells [4], the “Intracellular accumulation / uptake in the presence of phloridzin” value (from here on “Intracellular accumulation / uptake”) was “no changes were observed”, the “Time of maximum intracellular accumulation (given as Cmax)” value (“Time” for short) amounted to 10 min, the “Intracellular accumulation after pre-treatment with cyclosporine A” value is recorded as “clearly increased” and the “Intracellular accumulation after pre-treatment with verapamil” value is “clearly increased”.

`Cc1cc(O)c2c(c1)C(=O)c1cccc(O)c1C2=O` [Chrysophanol]: in the data set with Caco-2 cells [1], the “Permeability value BL to AP compared with AP to BL” value is “much greater (by a factor of two)”. Also, in data set [2], the Papp A→B at 50 µM was found to be 10.8 ± 2.34 ×10⁻⁶ cm/s and the Papp B→A at 50 µM was 27.4 ± 4.19 ×10⁻⁶ cm/s. Besides, the “Total percentage” value in the data set with rat small intestine (rat, in vivo) is “no clear differences”. In the data set on rat small intestine (rat, in vivo, 60 min), the “Luminal effluent, % of delivered dose” value is 36.82 ^2% and the “Vascular side, % of delivered dose” value was 32.22 ^2%. In data set [3] (setting [5]), this molecule returned an AUC of 1720 ± 57 ng·h/mL and a Cmax of 326 ± 18 ng/mL. In data set [3], this molecule came in with a K of 0.08 ± 0.01 h⁻¹, a T1/2Ke of 8.00 ± 0.28 h and a Tpeak of 3.00 ± 0.01 h. Besides, in the data set with Caco-2 cells [4], the “Intracellular accumulation / uptake” value was “reduced the cellular uptake”, the “Time” value was 10 min, the “Intracellular accumulation after pre-treatment with cyclosporine A” value is listed as “increased the uptake” and the “Intracellular accumulation after pre-treatment with verapamil” value was “increased the uptake”.

On to `Cc1cc(O)c2c(c1)C(=O)c1cc(O)cc(O)c1C2=O` [Emodin], for which the “Permeability value BL to AP compared with AP to BL” value with Caco-2 cells [1] is reported as “much greater (by a factor of two)”. In data set [2], the Papp A→B at 50 µM was determined as 9.52 ± 1.45 ×10⁻⁶ cm/s and the Papp B→A at 50 µM is 24.4 ± 3.22 ×10⁻⁶ cm/s. The “Total percentage” value in the data set on rat small intestine (isolated intestine perfusion, estimated) is listed as “two- to three-fold greater”. In addition, in data set [3] (setting [6]), the “Plasma concentration of glucuronidated metabolites relative to sulphated metabolites” value is 10 fold, the AUC amounted to 809 ± 17 ng·h/mL and the Cmax came out at 72 ± 6 ng/mL. For the same molecule, in data set [3], the K stood at 0.23 ± 0.04 h⁻¹, the T1/2Ke turned out to be 2.93 ± 0.04 h and the Tpeak stood at 0.50 ± 0.01 h. Besides, in the data set with Caco-2 cells [4], the “Intracellular accumulation / uptake” value is listed as “reduced the cellular uptake”, the “Time” value amounted to 10 min, the “Intracellular accumulation after pre-treatment with cyclosporine A” value is “increased the uptake” and the “Intracellular accumulation after pre-treatment with verapamil” value was “increased the uptake”.

Regarding `Oc1ccc(/C=C/c2cc(O)cc(O)c2)cc1` [Resveratrol], the “Permeability value BL to AP compared with AP to BL” value in the data set on Caco-2 cells [1] is given as “lower”. Moreover, in data set [2], the Papp A→B at 50 µM came out at 11.3 ± 3.45 ×10⁻⁶ cm/s and the Papp B→A at 50 µM was 7.86 ± 2.67 ×10⁻⁶ cm/s. Moreover, in the data set with rat small intestine (setting [7]), the “Luminal effluent, % of delivered dose” value is recorded as 35.37 ^2% and the “Vascular side, % of delivered dose” value is recorded as 12.74 ^2%. Moreover, in the data set on rat small intestine (setting [8]), the “Luminal effluent, amount” value was 536 ± 27 nmol and the “Vascular side, amount” value was 193 ± 11 nmol. Also, in data set [3] (setting [5]), the AUC came out at 98 ± 7 ng·h/mL and the concentration peaked (Cmax) at 157 ± 13 ng/mL. In data set [3], this molecule yielded a K of 0.38 ± 0.03 h⁻¹ and a T1/2Ke of 1.82 ± 0.05 h. For the same molecule, in the data set with Caco-2 cells [4], the “Intracellular accumulation / uptake” value is “no changes were observed”, the “Time” value is listed as “increased in a time-dependent manner”, the “Intracellular accumulation after pre-treatment with cyclosporine A” value is on record as “clearly increased” and the “Intracellular accumulation after pre-treatment with verapamil” value is given as “clearly increased”.

In general, AUC refers to concentration integrated over time. Low readings indicate low exposure, high ones high exposure. Usually Cmax stands for the peak of the concentration-time curve.
